# Measurements as given in patent US20220194997A1, “SUMO PEPTIDES FOR TREATING NEURODEGENERATIVE DISEASES” (The Chinese University of Hong Kong, priority 2019, published 2022).
# Where no end group is shown, it is not given here.
# How the values were obtained:
# [1] = molecular target: T1, α-synuclein (Homo sapiens, UniProt P37840); assay: Fibrillation (Thioflavin T) assay of SDS-induced α-synuclein aggregation; type: biochemical
# T1 construct: made in house; host or cells: Escherichia coli BL21(DE3), pET-28a (NcoI/XhoI)
# Experimental: The reaction contained the mixture of 70 μM α-synuclein and different concentrations of SUMO1 variants, 40 μM Thioflavin T (ThT) (Sigma-Aldrich), 0.4 mM SDS in reaction buffer (20 mM HEPES, 150 mM NaCl, pH 7.4). Reactions were performed in quadruplicate in a black clear-bottomed 96-well plate (Nunc, Thermo Fisher Scientific) with a final volume of 150 μL. The plate was sealed with sealing membrane (Thermo Fisher Scientific) and loaded into an Infinite M1000 plate reader (Tecan), incubated at 37° C. without agitation. The fluorescence was detected at 30 min intervals, with excitation at 450 nm and with emission at 485 nm. Protein samples were analyzed after fibrillation assay using size-exclusion chromatography on a Superdex 200 GL 5/150 column (3 ml, GE Healthcare) in reaction buffer.
# Sodium dodecyl sulfate (SDS) was added to mimic membrane environments and serve as nucleation scaffold to stimulate α-synuclein aggregation (Giehm et al., 2010).
# Thioflavin T (ThT) assay was performed as previously described^5 with minor modifications. […] The potential pre-formed aggregates in α-synuclein were removed by centrifugation at 15,000 rpm for 15 min and filtering through a 0.2 μm filter before the experiments. Reactions were performed in a black clear-bottomed 96-well plate (Nunc, Thermo Fisher Scientific) sealed with clear adhesive sealing sheet (Thermo Fisher Scientific) to avoid evaporation and loaded into an Infinite® M1000 plate reader (Tecan), incubated at 37° C. for 7 days without agitation. The fluorescence was recorded at 485 nm with excitation wavelength of 450 nm at the interval of 30 min.
# [2] = molecular target: T1, α-synuclein; assay: Microscale thermophoresis (MST) binding
# Experimental: The labelling reaction was performed according to the manufacturer's instructions. Unreacted dye was removed with the dye removal column supplied in the Protein Labelling Kit RED-NHS (NanoTemper Technologies) or desalting column (Bio-Rad). […] The labelled targets were adjusted to appropriate concentration for detection. The ligands were dissolved in reaction buffer and a series of 16 1:1 dilutions was prepared. For the measurement, each ligand dilution was mixed with one volume of labelled protein target. After 10 min incubation, the samples were loaded into standard or premium Monolith NT.115 Capillaries (NanoTemper Technologies). MST was measured using a Monolith NT.115 instrument (NanoTemper Technologies) at an ambient temperature of 25° C. Instrument parameters were adjusted to 20% LED power and medium MST power. Data of three independently pipetted measurements were analyzed (MO.Affinity Analysis software version 2.1.3, NanoTemper Technologies) using the signal from an MST-on time of 5 s.
# Unreacted dye was removed with desalting column (2K MWCO, Bio-Rad). The purity was monitored by measuring the ratio of protein to dye after the clean-up procedure. […]
# [3] = test system: SH-SY5Y cells; assay: Cellular uptake of Alexa 488 labelled peptide, confocal microscopy; type: cell-based; conditions: 1 h and 24 h, time course
# Experimental: SH-SY5Y cells were planted on 35 mm glass bottom confocal dishes and incubated overnight. After co-incubation with Alexa 488 labelled R8-SUMO1(31-55), cells were fixed with 4% paraformaldehyde for 15 min at room temperature at different time points and visualized by Leica TCS SP8 confocal microscope with 63X oil immersion objective.
# [4] = test system: α-synuclein (wild-type) transgenic Drosophila; assay: Climbing assay after larval feeding; type: in vivo; conditions: larval feeding 60, 120 or 240 μM, pilot study
# [5] = test system: α-synuclein-A30P transgenic Drosophila; assay: Climbing assay after larval feeding; type: in vivo; conditions: larval feeding 60, 120 or 240 μM, pilot study
# Excerpt: (§1) The following fly strains were adopted in this study: gmr-GAL4 (RRID: BDSC_1104), elav-GAL4 (RRID: BDSC_458), UAS-α-synuclein-A30P (RRID: BDSC_8147), and UAS-α-synuclein-A53T (RRID: BDSC_8148). All strains were obtained from the Bloomington Drosophila Stock Center. To obtain PD model flies, virgin flies carrying the driver gmr-GAL4 or elav-GAL4 on X chromosome were crossed to males from UAS-α-synuclein-A30P/UAS-α-synuclein-A53T stocks. The progeny of these crosses was maintained on standard cornmeal medium supplemented with dry yeast in 25° C. incubator.
# (§2) Climbing assay was performed according to previously described^10. Briefly, a group of 10 flies from each condition were placed in individual plastic vial, and gently tapped to the bottom of the vail. The number of flies that could climb a height of 2 cm within 15 s was recorded. Each trial was repeated five times with 1 min recovery periods between each trials. Total 20 (10 males and 10 females) flies from each condition were tested for one genetic cross.
# [6] = test system: α-synuclein-A53T transgenic Drosophila; assay: Climbing assay after larval feeding; type: in vivo; conditions: larval feeding 60, 120 or 240 μM, pilot study
# Excerpt: as §1, §2
# [7] = equimolar ratio (1:1), 70 μM α-synuclein, 37° C., 7 days
compound,measurement,setting,value
"CC[C@H](C)[C@H](NC(=O)[C@H](Cc1ccc(O)cc1)NC(=O)[C@H](CCC(=O)O)NC(=O)CNC(=O)[C@H](CCC(=O)O)NC(=O)[C@H](CCCCN)NC(=O)[C@H](CCCCN)NC(=O)[C@@H](N)CC(=O)O)C(=O)N[C@@H](CCCCN)C(=O)N[C@@H](CC(C)C)C(=O)N[C@@H](CCCCN)C(=O)N[C@H](C(=O)N[C@H](C(=O)NCC(=O)N[C@@H](CCC(N)=O)C(=O)N[C@@H](CC(=O)O)C(=O)N[C@@H](CO)C(=O)N[C@@H](CO)C(=O)N[C@@H](CCC(=O)O)C(=O)N[C@H](C(=O)N[C@@H](Cc1c[nH]cn1)C(=O)N[C@@H](Cc1ccccc1)C(=O)N[C@@H](CCCCN)C(=O)N[C@H](C(=O)N[C@@H](CCCCN)C(=O)N[C@@H](CCSC)C(=O)N[C@H](C(=O)N[C@H](C(=O)N[C@@H](Cc1c[nH]cn1)C(=O)N[C@@H](CCC(=O)O)C(=O)N[C@@H](CCCCN)C(=O)N[C@@H](CCCCN)C(=O)N[C@@H](CCCNC(=N)N)C(=O)N[C@@H](CCCCN)C(=O)N[C@@H](CCC(=O)O)C(=O)N[C@@H](CO)C(=O)N[C@@H](Cc1ccc(O)cc1)C(=O)N[C@@H](CS)C(=O)N[C@@H](CCC(N)=O)C(=O)N[C@@H](CCCNC(=N)N)C(=O)N[C@@H](CCC(N)=O)C(=O)O)[C@@H](C)O)[C@@H](C)O)C(C)C)[C@@H](C)CC)[C@@H](C)CC)C(C)C [SUMO1(15-55) (L44E, L47R)]",inhibition of α-synuclein aggregation,[1]; [7],much weaker inhibition effect
same,binding ability to α-synuclein compared with that of SUMO1(15-55),[2],around 1/40
"His-SUMO1(31-55): SUMO1(31-55) with an N-terminal 10×His tag ({10xHis tag}-SSEIHFKVKMTTHLKKLKESYCQRQ; UniProt P63165 31-55, looked up, fragment)",inhibition of α-synuclein aggregation,[1]; ratio of 1:5 or 1:10 α-synuclein: SUMO peptide inhibitor,partial inhibition
RRRRRRRRSSEIHFKVKMTTHLKKLKESYCQRQ [R8-SUMO1(31-55)],internalization into cells,[3],internalization into SH-SY5Y cells at a high efficiency
"SUMO1(20-40): SUMO1 derived peptide, residues 20-40 (EYIKLKVIGQDSSEIHFKVKM; UniProt P63165 20-40, looked up, fragment)",inhibition of α-synuclein aggregation,[1]; [7],not effective
"SUMO1(31-55): residues 31-55 of human SUMO1, a beta sheet followed by an alpha-helix (SSEIHFKVKMTTHLKKLKESYCQRQ)",locomotor dysfunction (climbing),[4],improved the locomotor dysfunction
same,locomotor dysfunction (climbing),[5],improved the locomotor dysfunction
same,locomotor dysfunction (climbing),[6],improved the locomotor dysfunction
"SUMO2(16-51): residues 16-51 of human SUMO2, identical sequence to SUMO3(15-50) (DHINLKVAGQDGSVVQFKIKRHTPLSKLMKAYCERQ; UniProt P61956 16-51, looked up, fragment)",inhibition of α-synuclein aggregation,[1]; [7],suppressed
same,delay of the initiation of the aggregation,[1]; half molar ratio,2 days
